From ChEMBL document CHEMBL4507268 (2021)

How the values were obtained:
Settings in all cases: Compound concentration 1.0 uM
[1] = target: Tribbles homolog 2 (Homo sapiens) (UniProt Q92519)
[2] = target: T1, Serine/threonine-protein kinase Nek1 (Homo sapiens) (UniProt Q96PY6)
T1 sequence (whole entry): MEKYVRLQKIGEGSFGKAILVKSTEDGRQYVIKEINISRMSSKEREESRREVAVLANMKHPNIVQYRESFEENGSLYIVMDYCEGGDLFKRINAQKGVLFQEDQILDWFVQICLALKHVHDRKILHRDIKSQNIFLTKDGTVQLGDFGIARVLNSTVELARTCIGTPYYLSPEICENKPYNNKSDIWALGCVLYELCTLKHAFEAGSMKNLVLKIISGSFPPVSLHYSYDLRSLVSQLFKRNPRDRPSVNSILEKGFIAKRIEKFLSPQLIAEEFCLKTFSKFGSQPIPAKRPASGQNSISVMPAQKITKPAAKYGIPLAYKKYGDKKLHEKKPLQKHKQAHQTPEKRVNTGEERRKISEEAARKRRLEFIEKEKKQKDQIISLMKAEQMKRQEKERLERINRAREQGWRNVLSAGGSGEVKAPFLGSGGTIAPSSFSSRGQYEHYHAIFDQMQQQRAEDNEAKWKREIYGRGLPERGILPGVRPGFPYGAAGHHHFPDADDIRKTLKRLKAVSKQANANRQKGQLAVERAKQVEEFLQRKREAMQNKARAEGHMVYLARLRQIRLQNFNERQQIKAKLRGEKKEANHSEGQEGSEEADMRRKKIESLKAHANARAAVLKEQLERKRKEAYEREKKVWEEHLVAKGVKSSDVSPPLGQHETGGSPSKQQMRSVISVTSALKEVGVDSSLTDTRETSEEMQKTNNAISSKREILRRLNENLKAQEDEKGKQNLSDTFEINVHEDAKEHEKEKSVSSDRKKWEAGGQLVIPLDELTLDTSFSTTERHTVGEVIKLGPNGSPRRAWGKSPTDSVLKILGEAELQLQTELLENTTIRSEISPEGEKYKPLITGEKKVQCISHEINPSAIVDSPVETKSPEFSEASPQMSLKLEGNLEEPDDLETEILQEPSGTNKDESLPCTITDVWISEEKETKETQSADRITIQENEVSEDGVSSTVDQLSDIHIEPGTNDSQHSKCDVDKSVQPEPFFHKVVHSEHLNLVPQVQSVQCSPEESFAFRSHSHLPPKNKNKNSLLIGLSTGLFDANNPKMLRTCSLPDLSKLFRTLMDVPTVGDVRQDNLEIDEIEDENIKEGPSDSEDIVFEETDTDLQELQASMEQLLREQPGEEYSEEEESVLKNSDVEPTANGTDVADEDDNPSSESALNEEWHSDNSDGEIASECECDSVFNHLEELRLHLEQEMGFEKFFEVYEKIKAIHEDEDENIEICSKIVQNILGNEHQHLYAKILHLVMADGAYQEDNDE

[3] = target: Mitogen-activated protein kinase kinase kinase 20 (Homo sapiens) (UniProt Q9NYL2)
[4] = target: T2, Serine/threonine-protein kinase Sgk2 (Homo sapiens) (UniProt Q9HBY8)
T2 sequence (whole entry): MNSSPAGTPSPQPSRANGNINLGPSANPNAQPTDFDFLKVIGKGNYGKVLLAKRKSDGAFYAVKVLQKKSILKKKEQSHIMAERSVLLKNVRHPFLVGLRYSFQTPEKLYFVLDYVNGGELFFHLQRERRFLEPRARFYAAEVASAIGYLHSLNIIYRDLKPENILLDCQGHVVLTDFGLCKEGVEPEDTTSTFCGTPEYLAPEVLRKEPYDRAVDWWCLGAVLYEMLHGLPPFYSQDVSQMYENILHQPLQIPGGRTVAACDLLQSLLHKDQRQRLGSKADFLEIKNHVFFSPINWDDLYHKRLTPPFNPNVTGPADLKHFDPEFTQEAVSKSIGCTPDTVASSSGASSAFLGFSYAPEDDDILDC

[5] = target: T3, Serine/threonine-protein kinase TAO2 (Homo sapiens) (UniProt Q9UL54)
T3 sequence (whole entry): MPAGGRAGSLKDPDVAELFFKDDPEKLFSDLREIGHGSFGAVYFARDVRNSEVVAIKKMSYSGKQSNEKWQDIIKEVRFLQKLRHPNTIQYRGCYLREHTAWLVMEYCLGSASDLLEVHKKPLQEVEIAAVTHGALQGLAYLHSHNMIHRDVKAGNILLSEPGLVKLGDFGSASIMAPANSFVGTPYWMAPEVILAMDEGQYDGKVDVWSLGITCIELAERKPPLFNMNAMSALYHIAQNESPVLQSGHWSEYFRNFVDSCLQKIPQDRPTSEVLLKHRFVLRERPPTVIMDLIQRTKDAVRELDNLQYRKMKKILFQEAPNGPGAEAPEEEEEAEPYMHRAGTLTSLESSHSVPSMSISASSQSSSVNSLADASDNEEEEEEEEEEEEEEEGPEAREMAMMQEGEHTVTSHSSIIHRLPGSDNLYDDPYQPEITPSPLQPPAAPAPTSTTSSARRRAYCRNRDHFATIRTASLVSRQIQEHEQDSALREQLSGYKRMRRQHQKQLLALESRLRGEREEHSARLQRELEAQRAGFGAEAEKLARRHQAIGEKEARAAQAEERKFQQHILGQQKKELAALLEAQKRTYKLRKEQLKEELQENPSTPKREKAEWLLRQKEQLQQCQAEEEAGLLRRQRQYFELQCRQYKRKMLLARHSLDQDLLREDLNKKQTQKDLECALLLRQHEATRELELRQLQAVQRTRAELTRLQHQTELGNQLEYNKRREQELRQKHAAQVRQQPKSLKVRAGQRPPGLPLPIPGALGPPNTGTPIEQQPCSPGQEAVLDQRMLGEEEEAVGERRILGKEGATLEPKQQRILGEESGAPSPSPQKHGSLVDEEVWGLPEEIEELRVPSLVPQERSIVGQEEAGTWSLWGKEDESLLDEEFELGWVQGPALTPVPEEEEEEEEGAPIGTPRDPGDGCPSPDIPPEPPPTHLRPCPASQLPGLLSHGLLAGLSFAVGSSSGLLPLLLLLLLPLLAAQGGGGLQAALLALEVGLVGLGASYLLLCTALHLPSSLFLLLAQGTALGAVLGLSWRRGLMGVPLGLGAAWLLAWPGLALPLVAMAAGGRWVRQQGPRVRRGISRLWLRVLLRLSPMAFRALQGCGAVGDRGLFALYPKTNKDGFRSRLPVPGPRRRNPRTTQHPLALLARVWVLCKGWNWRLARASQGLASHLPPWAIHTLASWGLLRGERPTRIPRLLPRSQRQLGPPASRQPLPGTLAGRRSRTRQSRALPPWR

[6] = target: Mitogen-activated protein kinase kinase kinase 9 (Homo sapiens) (UniProt P80192)

Measured: % residual kinase activity

Chain of Mitogen-activated protein kinase kinase kinase 20 (Homo sapiens) (Q9NYL2 2-800 limits assumed): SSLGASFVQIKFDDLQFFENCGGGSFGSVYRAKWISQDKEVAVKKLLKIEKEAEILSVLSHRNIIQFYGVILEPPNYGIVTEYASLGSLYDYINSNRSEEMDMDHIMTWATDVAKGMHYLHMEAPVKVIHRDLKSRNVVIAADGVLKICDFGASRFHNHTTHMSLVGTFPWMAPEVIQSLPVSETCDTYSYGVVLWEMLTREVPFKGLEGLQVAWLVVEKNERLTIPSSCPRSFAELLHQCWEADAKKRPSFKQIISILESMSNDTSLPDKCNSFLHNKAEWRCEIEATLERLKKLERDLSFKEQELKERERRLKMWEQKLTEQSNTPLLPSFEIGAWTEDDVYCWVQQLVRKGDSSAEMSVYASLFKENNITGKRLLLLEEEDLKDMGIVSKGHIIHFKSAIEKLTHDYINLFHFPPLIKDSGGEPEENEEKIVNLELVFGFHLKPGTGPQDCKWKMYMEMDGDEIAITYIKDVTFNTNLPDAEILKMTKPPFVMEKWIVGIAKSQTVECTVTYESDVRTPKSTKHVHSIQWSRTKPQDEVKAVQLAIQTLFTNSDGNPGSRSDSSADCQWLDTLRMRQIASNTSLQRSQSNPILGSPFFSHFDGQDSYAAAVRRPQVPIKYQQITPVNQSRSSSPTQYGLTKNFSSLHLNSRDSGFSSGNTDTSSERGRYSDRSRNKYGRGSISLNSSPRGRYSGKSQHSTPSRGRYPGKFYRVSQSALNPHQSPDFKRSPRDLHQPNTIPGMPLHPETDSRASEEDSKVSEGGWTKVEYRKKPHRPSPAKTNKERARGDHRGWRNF
Chain of Mitogen-activated protein kinase kinase kinase 9 (Homo sapiens) (P80192 whole entry, looked up): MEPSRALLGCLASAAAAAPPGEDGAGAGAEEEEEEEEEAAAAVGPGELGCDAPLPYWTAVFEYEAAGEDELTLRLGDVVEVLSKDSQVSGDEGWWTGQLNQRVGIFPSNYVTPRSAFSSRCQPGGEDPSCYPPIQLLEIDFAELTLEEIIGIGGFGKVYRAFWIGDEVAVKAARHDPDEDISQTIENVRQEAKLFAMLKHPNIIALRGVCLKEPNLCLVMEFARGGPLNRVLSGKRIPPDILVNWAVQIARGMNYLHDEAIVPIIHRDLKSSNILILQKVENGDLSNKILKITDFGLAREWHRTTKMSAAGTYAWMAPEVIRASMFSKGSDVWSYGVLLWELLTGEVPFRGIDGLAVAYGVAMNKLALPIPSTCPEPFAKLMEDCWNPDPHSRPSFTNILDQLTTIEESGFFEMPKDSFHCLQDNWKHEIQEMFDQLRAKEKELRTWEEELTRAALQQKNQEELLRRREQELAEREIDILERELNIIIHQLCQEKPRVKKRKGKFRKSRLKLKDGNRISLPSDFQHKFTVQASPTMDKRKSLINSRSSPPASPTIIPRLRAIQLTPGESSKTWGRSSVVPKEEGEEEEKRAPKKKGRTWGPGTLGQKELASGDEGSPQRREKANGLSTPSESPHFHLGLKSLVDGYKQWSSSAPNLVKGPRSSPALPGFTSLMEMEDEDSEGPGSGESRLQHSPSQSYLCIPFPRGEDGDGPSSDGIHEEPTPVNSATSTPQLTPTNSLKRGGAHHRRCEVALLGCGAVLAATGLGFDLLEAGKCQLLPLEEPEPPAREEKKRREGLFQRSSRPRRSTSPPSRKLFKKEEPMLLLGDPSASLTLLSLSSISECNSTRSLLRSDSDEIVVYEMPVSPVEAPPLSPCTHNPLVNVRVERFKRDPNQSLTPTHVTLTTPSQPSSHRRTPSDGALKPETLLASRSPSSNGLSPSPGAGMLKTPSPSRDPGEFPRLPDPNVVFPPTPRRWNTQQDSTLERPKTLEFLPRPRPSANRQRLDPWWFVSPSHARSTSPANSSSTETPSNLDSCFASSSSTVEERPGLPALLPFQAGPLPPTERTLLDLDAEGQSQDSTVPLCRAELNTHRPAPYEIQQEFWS
Chain of Tribbles homolog 2 (Homo sapiens) (Q92519 whole entry): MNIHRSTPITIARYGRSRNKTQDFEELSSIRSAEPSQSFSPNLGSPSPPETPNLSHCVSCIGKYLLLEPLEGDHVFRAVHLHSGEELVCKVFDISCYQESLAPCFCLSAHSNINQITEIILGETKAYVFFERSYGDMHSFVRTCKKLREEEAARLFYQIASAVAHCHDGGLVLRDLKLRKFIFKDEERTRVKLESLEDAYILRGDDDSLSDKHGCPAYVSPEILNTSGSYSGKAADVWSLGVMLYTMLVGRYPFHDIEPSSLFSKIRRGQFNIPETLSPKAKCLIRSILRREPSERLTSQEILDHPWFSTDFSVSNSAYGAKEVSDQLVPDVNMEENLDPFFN

CN1CCN(c2cnc3c(C4CCN(C(=O)c5ccc(OC(F)(F)F)cc5N)CC4)ncnc3c2)CC1 [BAY-885]
inactive: [1] 109% | [2] 98% | [3] 100% | [4] 89% | [5] 113% | [6] 108%
